This passage reports selectivity ratio and IC50 results from ChEMBL document CHEMBL1153961, “Antiproliferative and antimalarial anthraquinones of Scutia myrtina from the Madagascar forest” (Bioorg Med Chem, 2009).

Data set [1] in a line: Selectivity index, ratio of IC50 for human A2780 cells to IC50 for Plasmodium falciparum FCM29. It is filed as toxicity, cell-based. As to conditions: A2780 cells versus Plasmodium falciparum FCM29, read-out: Ratio IC50.
Data set [2] deals with Plasmodium falciparum. The experiment in a line: Antiplasmodial activity against chloroquine-resistant Plasmodium falciparum FCM29 by SYBR green assay. The class given is functional, organism-based.
The nature of data set [3]: Selectivity index, ratio of IC50 for human A2780 cells to IC50 for Plasmodium falciparum Dd2. It is filed as toxicity, cell-based. Particulars: A2780 cells versus Plasmodium falciparum Dd2, read-out: Ratio IC50.
The test system of a further data set is A2780. Briefly: Cytotoxicity against human A2780 cells. It is filed as cell-based.
The test system of data set [4] is Plasmodium falciparum. Briefly: Antiplasmodial activity against chloroquine-resistant Plasmodium falciparum Dd2 by SYBR green assay. It is filed as functional, organism-based.

With `CCC(C)C(=O)OC1(c2ccc3c(c2O)C(=O)c2c(cc(O)c(C(=O)OC)c2C)C3(OC(=O)C(C)CC)c2ccc3c(c2O)C(=O)c2c(cc(O)c(C(=O)OC)c2C)C3=O)c2cccc(O)c2C(=O)c2c1cc(O)c(C(=O)OC)c2C` (stereo unspecified) [SCUTIANTHRAQUINONE D], the selectivity ratio in data set [1] came to 0.8; in data set [3], 1.2. Also, the IC50 was found to be 5.6 µM with Plasmodium falciparum [2], 4.3 µM in the data set on A2780 and 3.68 µM with Plasmodium falciparum [4].
The matching figures for `CCC(C)C(=O)OC1(c2ccc3c(c2O)C(=O)c2c(cc(O)c(C(=O)OC)c2C)C3=O)c2cccc(O)c2C(=O)c2c1cc(O)c(C(=O)OC)c2C` (stereo unspecified) [SCUTIANTHRAQUINONE A]: 6.3, 6.1, 1.2 µM, 7.6 µM and 1.23 µM.
The matching figures for `COC(=O)c1c(O)cc2c(c1C)C(=O)c1c(ccc(C3(O)c4cccc(O)c4C(=O)c4c3cc(O)c(C(=O)OC)c4C)c1O)C2=O` (stereo unspecified) [SCUTIANTHRAQUINONE C]: more than 1, more than 5, 15.4 µM, more than 16 µM and 3.14 µM.
Consider `C=C[C@H]1CN2CC[C@H]1C[C@H]2[C@H](O)c1ccnc2ccc(OC)cc12` [QUININE], for which half-maximal inhibition in the data set on Plasmodium falciparum [2] (IC50) was put at 0.22 µM.
With `CC(=O)O[C@H]1C(=O)[C@@]2(C)[C@H]([C@H](OC(=O)c3ccccc3)[C@]3(O)C[C@H](OC(=O)[C@H](O)[C@@H](NC(=O)c4ccccc4)c4ccccc4)C(C)=C1C3(C)C)[C@]1(OC(C)=O)CO[C@@H]1C[C@@H]2O` [PACLITAXEL], the IC50 in the data set on A2780 was 0.014 µM.
With `COC(=O)c1c(O)cc2c(c1C)C(=O)c1c(O)cccc1C2=O` [ALOESAPONARIN I], the figures for the IC50 with Plasmodium falciparum [2], with A2780 and in the data set on Plasmodium falciparum [4] were 77.6 µM, more than 32 µM and 5.58 µM, respectively. Moreover, in data set [3], the selectivity ratio is more than 5.7.
Regarding `COC(=O)c1c(O)cc2c(c1C)C(=O)c1c(ccc(C3(OC(=O)C(C)C)c4cccc(O)c4C(=O)c4c3cc(O)c(C(=O)OC)c4C)c1O)C2=O` (stereo unspecified) [SCUTIANTHRAQUINONE B], the selectivity ratio turned out to be 1.1 in data set [1] and 5.1 in data set [3]. Besides, the IC50 in the data set with Plasmodium falciparum [2] was found to be 5.4 µM; in the data set with A2780, 5.8 µM; in the data set on Plasmodium falciparum [4], 1.14 µM.

For orientation: IC50 means the concentration that gives 50% inhibition. A high value points to weaker potency.
